Reference: ChEMBL document CHEMBL5233260, “Diverse chemical space of indoleamine-2,3-dioxygenase 1 (Ido1) inhibitors” (Eur J Med Chem, 2021)
Values joined by “and” are separate entries in the source; they are usually repeats but may differ in a detail not shown here. Identical values can stand only once.

The compounds below were run against T1, Indoleamine 2,3-dioxygenase 1 (Homo sapiens, UniProt P14902) (assay: Inhibition of IDO1 (unknown origin)).
Target sequence in this assay (P14902 whole entry): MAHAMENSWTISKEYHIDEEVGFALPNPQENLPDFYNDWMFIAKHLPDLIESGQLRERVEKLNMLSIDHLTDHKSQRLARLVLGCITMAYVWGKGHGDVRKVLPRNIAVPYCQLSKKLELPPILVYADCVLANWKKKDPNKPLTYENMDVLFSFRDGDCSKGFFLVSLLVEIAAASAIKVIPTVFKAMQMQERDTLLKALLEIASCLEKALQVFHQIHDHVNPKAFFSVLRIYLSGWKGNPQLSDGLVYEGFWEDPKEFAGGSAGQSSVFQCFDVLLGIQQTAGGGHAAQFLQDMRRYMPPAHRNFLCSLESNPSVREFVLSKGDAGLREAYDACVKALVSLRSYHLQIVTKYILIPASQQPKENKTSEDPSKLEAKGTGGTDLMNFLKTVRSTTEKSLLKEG
Compound `COC1=CC(=O)c2c(O)c3c(c4c2[C@]12CC(=O)C[C@H]2[C@@]1(C[C@H](O)[C@H](O)CO1)O4)C[C@](C)(O)[C@H](O)C3` has an IC50 of 32300 nM.
With `CCc1c(OC)cc2c(c1O)C(=O)C[C@@H](OC)[C@@H]2O` the IC50 was 6360 nM.
For `CS[C@@]1(C)C(=O)N2[C@H]3N(c4ccc5oc6cc(=O)c(N)c(C(=O)O)c-6nc5c4C(=O)O)c4ccccc4[C@@]3(c3c[nH]c4ccccc34)[C@H](O)[C@]2(SC)C(=O)N1C`, the IC50 was 2000 nM.
`Brc1cc(Nc2ccc3nonc3c2)c2cn[nH]c2c1` was tested, and the IC50 was 74000 nM.
Compound `COC1=C(OC)C(=O)C(Nc2ccccc2)=CC1=O` has an IC50 of 600 nM.
With `COC1=C(OC)C(=O)C(Nc2ccccc2)=C(C)C1=O` the IC50 was 700 nM.
For `COC1=C(OC)C(=O)C(Nc2ccc(Cl)cc2)=CC1=O`, the IC50 was 270 nM.
In the case of `CNC(=O)[C@H]1[C@@H](OC)C2(O)c3ccccc3NC(=O)[C@@]2(C(=O)N[C@@H](CCC(=O)OC)C(=O)C=C(C)C)N1C` (some centres not stated), the IC50 is reported as 10100 nM.
`O=C(Cc1ccccc1)Nc1ccc(CCOc2ccccc2-c2cnc[nH]2)cc1` gave an IC50 of less than 1000 nM.
`COC1=C(OC)C(=O)C(Nc2cccc(NC(=O)Nc3ccccc3)c2)=C(C)C1=O` was tested, and the IC50 was 400 nM.
In the case of `COc1c(C(C)=O)c(C)cc2cc3c(c(O)c12)C(=O)C(C)(C)C(=O)C3(C)C`, the IC50 is reported as 1180 nM.
`COC(=O)[C@H]1CCCN1C[C@@H](O)c1c(OC)cc2c(c1O)C(=O)c1cc(O)c(C)cc1C2=O` was tested, and the IC50 was 500 nM.
`C=C1CC[C@@H]2[C@](C)(CO)[C@H](O)CC[C@@]2(C)[C@@H]1C/C=C1/C(=O)OC[C@H]1O` [ANDROGRAPHOLIDE] was tested, and the IC50 was 160000 nM.
For `COC1=C(OC)C(=O)C(CCC(C)C)=C(C)C1=O`, the IC50 was 2800 nM.
Compound `Nc1oc2cnccc2c1Nc1ccc(F)c(Cl)c1` has an IC50 of less than 200 nM.

The compounds below were run against T1, Indoleamine 2,3-dioxygenase 1 (assay: Inhibition of IDO1 (unknown origin) at 10 uM relative to control).
Target sequence in this assay (P14902 whole entry, looked up): as the sequence (P14902 whole entry) above
Compound `O[C@H]1CCCC[C@@H]1CNc1cc(Br)cc2[nH]ncc12` has an inhibition greater than 70%.

What follows are compounds tested against T1, Indoleamine 2,3-dioxygenase 1 (assay: Inhibition of IDO1 in human A549 cells by ELISA assay).
Type: cell-based
Target sequence in this assay (P14902 whole entry): as above
`CC(=O)NCCc1c(C(=O)c2ccccc2[N+](=O)[O-])[nH]c2ccc(Cl)cc12` was tested, and the IC50 was 740 nM.

What follows are compounds tested against T2, Indoleamine 2,3-dioxygenase 1 (Mus musculus, UniProt P28776) (assay: Inhibition of mouse IDO1 using L-tryptophan as substrate by methylene blue dye based analysis).
T2 sequence (P28776 whole entry): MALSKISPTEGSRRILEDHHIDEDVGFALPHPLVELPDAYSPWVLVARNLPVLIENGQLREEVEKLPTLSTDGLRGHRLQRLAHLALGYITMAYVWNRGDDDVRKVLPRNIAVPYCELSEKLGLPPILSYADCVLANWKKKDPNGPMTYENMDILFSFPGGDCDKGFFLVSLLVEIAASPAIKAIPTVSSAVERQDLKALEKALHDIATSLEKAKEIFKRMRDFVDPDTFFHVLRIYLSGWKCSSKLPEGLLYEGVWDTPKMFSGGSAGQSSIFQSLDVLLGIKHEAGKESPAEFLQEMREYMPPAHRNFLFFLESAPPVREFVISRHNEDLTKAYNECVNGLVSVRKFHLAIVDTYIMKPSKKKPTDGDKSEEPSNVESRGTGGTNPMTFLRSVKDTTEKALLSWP
`Fc1ccc(Nc2ccc3c[n+]4ccccc4cc3c2)cc1` was tested, and the IC50 was 530 nM.
For `COc1ccc(Nc2ccc3c[n+]4ccccc4cc3c2)cc1`, the IC50 was greater than 66000 nM.
`Clc1ccc(Nc2ccc3c[n+]4ccccc4cc3c2)cc1` was tested, and the IC50 was 510 nM.
Compound `Clc1cccc(Nc2ccc3c[n+]4ccccc4cc3c2)c1` has an IC50 of 39600 nM.
`Cc1ccc(Nc2ccc3c[n+]4ccccc4cc3c2)cc1` was tested, and the IC50 was 17000 nM.
With `c1ccc(Nc2ccc3c[n+]4ccccc4cc3c2)cc1` the IC50 was 560 nM.
`CN(C)c1ccc(Nc2ccc3c[n+]4ccccc4cc3c2)cc1` showed an IC50 greater than 50000 nM.

The compounds below were run against T1, Indoleamine 2,3-dioxygenase 1 (assay: Inhibition of human IDO1 expressed in Escherichia coli using L-tryptophan as substrate incubated for 30 mins by methylene blue dye based microplate reader analysis).
Target sequence in this assay (P14902 whole entry): as the sequence (P14902 whole entry) above
`COC1=CC(=O)c2c(nc(COc3ccc([N+](=O)[O-])cc3)n2C)C1=O` was tested, and the IC50 was 100 nM.
With `COC1=CC(=O)c2c(c(CO)c(C)n2C)C1=O` the IC50 was 10000 nM.
For `COC1=CC(=O)c2sc(C)c(CO)c2C1=O`, the IC50 was 1000 nM.
For `COC1=CC(=O)c2c(c(CO)nn2C)C1=O`, the IC50 was 1000 nM.
In the case of `COC(=O)c1c(C)oc2c1C(=O)C(OC)=CC2=O`, the IC50 is reported as 7200 nM.
For `COC1=CC(=O)c2c(oc(C)c2CO)C1=O`, the IC50 was 500 nM.

These compounds were tested against T1, Indoleamine 2,3-dioxygenase 1 (assay: Inhibition of IDO1 in human MDA-MB-231 cells).
Type: cell-based
Target sequence in this assay (P14902 whole entry): as above
`NS(=O)(=O)NCCNC(=O)c1n[nH]nc1/C(=N/O)Nc1ccc(F)c(Br)c1` gave an IC50 of 28 nM.

These compounds were tested against T1, Indoleamine 2,3-dioxygenase 1 (assay: Inhibition of IDO1 (unknown origin) at 1 uM relative to control).
Target sequence in this assay (P14902 whole entry, looked up): as the sequence (P14902 whole entry) above
`O=C(NCc1cnc2scc(-c3ccc(Br)cc3)n12)n1cc(C2CC2)nn1` gave an inhibition of 70%.
For `N#Cc1ccc(Cc2cn(Cc3cnc4scc(-c5ccc(Br)cc5)n34)nn2)cc1`, the inhibition was 75%.

What follows are compounds tested against T1, Indoleamine 2,3-dioxygenase 1 (assay: Inhibition of human recombinant N-terminal his6-tagged IDO1 expressed in Escherichia coli BL21 using L-tryptophan as substrate incubated for 1 hr by methylene blue dye based UV-Vis spectrophotometer analysis).
Target sequence in this assay (P14902 whole entry): as above
With `NS(=O)(=O)NCCNC(=O)c1n[nH]nc1/C(=N/O)Nc1ccc(F)c(Br)c1` the IC50 was 92 nM and 28 nM.

The compounds below were run against T1, Indoleamine 2,3-dioxygenase 1 (assay: Inhibition of human IDO1).
Target sequence in this assay (P14902 whole entry): as above
Compound `N#Cc1ccc(NC(=O)Nc2ccc(S(=O)(=O)NNc3ccc(Br)cc3)cc2)cc1` has an IC50 of 199 nM.

Each compound was assayed against T1, Indoleamine 2,3-dioxygenase 1 (assay: Inhibition of IDO1 in human HeLa cells assessed as inhibition of kynurenine production incubated for 30 mins by microplate reader based analysis).
Type: cell-based
`CCN(c1ncc(C2(C(=O)O)CCC2)cc1Nc1ccc(Cl)cc1)C1CCOCC1` showed an IC50 of 100 nM.
Work on `Cc1cc(Cl)nc2onc(N)c12` yielded an IC50 of less than 1000 nM.

The compounds below were run against T1, Indoleamine 2,3-dioxygenase 1 (assay: Inhibition of human IDO1 using L-tryptophan as substrate by methylene blue dye based spectrometric method).
For `Cc1ccc(S(=O)(=O)NNC(=O)c2n[nH]c3ccccc23)cc1`, the IC50 was 17000 nM.
`c1ccc(-c2[nH]nc3ccccc23)cc1` gave an IC50 of 19600 nM.
`c1cncc(-c2n[nH]c3ccccc23)c1` gave an IC50 of 9520 nM.
`O=C(NNc1ccccc1)c1n[nH]c2ccccc12` gave an IC50 of 720 nM.
`Clc1ccc(-c2n[nH]c3ccccc23)cc1Cl` was tested, and the IC50 was 5460 nM.

What follows are compounds tested against T1, Indoleamine 2,3-dioxygenase 1 (assay: Inhibition of IDO1 in HEK293 cells at 20 uM incubated for 24 hrs by LC-MS/MS analysis relative to control).
Type: cell-based
Target sequence in this assay (P14902 whole entry, looked up): as the sequence (P14902 whole entry) above
`O/N=C(\Nc1ccc(F)c(Br)c1)c1cccc2cn[nH]c12` showed an inhibition of 80%.

Each compound was assayed against T2, Indoleamine 2,3-dioxygenase 1 (assay: Inhibition of IDO1 in mouse LLTC cell line).
Type: cell-based
Work on `COc1cccc2c1C(=O)C1=C(C[C@H](Cn3cc(-c4ccccc4)nn3)O[C@@H]1C)C2=O` yielded an IC50 of 6000 nM.
Compound `COc1ccc2c(c1)C(=O)C1=C(C2=O)[C@@H](C)O[C@@H](CC(=O)O)C1` has an IC50 of 800 nM.

Each compound was assayed against T1, Indoleamine 2,3-dioxygenase 1 (assay: Inhibition of human IDO1 incubated for 30 mins by microplate reader based analysis).
`COc1cc(O)c2c(c1)C(=O)C1=C(C2=O)[C@@H](C)O[C@@H](C)C1` was tested, and the IC50 was 5000 nM.

The compounds below were run against T1, Indoleamine 2,3-dioxygenase 1 (assay: Inhibition of human IDO1 using L-tryptophan as substrate incubated for 1 hr by absorbance based analysis).
For `O=C(NC(c1cccc(Br)c1)n1ccnc1)c1ccc([N+](=O)[O-])cc1` (configuration not stated), the IC50 was 810 nM.

Each compound was assayed against T1, Indoleamine 2,3-dioxygenase 1 (assay: Binding affinity to IDO1 (unknown origin) assessed as inhibition constant).
Compound `CC12CCCc3coc(c31)C(=O)c1cc3c(cc12)C(=O)C1NCCS(=O)(=O)C1C3=O` (configuration not stated) has a Ki of 86 nM.
In the case of `NC(Cc1coc2ccccc12)C(=O)O` (configuration not stated), the Ki is reported as 70000 nM.
With `CC12CCCc3coc(c31)C(=O)c1cc3c(cc12)C(=O)C1C(NCCS1(=O)=O)C3=O` (configuration not stated) the Ki was 25 nM.
Work on `NC(Cc1csc2ccccc12)C(=O)O` (configuration not stated) yielded a Ki of 7000 nM.
`CCc1cc2c(cc1C)C(=O)C1=C(C2=O)C(OC)(C(=O)OC)OC1(C)C` (configuration not stated) showed a Ki of 140 nM.
In the case of `CCc1c(C)cc2c(c1O)C(=O)C1=C(C2=O)C(C)(C)OC1(O)C(=O)OC` (configuration not stated), the Ki is reported as 210 nM.
`COC(=O)/C1=C/c2c([nH]c3ccccc23)/C(C(=O)OC)=C\c2c1[nH]c1ccccc21` [CAULERPIN] was tested, and the Ki was 2000 nM.

These compounds were tested against T1, Indoleamine 2,3-dioxygenase 1 (assay: Inhibition of IDO1 (unknown origin) at 1 mM relative to control).
Target sequence in this assay (P14902 whole entry, looked up): as the sequence (P14902 whole entry) above
`O=C(O)C[C@H]1CNC(=O)c2cc(Br)c(Br)n21` showed an inhibition of 30%.

What follows are compounds tested against T1, Indoleamine 2,3-dioxygenase 1 (assay: Inhibition of IDO1 in human HeLa cells).
Type: cell-based
`N#Cc1ccc(NC(=O)Nc2ccc(S(=O)(=O)NNc3ccc(Br)cc3)cc2)cc1` showed an EC50 of 51 nM.

What follows are compounds tested against T1, Indoleamine 2,3-dioxygenase 1 (assay: Inhibition of human recombinant IDO1 using L-tryptophan as substrate incubated for 10 mins by absorbance based analysis).
Compound `COc1nsc2c1C(=O)c1c(O)cccc1C2=O` has an IC50 of 71 nM.
